From patent US20090042809A1, “Blood Pressure Lowering Protein Hydrolysates” (priority 2005, published 2009)
“Also recorded” adds a separate entry of the source.

How the values were obtained:
ACE [1] = biological target: ACE (Homo sapiens, UniProt P12821); conditions: cited from earlier work; for IC50: Nakamura et al. 1995, Aryoshi 1993, read-out: IC50 values reported earlier for ACE inhibiting peptides; for ACE inhibiting activities reported: in vitro, prior art
[2] = test system: spontaneously hypertensive rats; conditions: tripeptides from fermented milk (Nakamura et al. 1995); cited from earlier work
[3] = gastrointestinal treatment (GIT) simulating digestion with pepsin and pancreatin; format: in vitro ADME, human
Description: After consumption, dietary proteins and peptides are exposed to various digestive enzymatic processes in the gastrointestinal tract. In order to assess the stability of the newly identified bioactive peptides in the human gastrointestinal tract, the CDBAP preparation (prepared as described in Example 7) was subjected to a gastrointestinal treatment (GIT) simulating the digestive conditions typically found in the human body. Samples obtained after various incubation times in the GIT model system were analysed using the on-line HPLC-Bioassay-MS or HRS-MS system to quantify any residual MAP and ITP peptides. The GIT procedure was performed in a standardized mixing device incorporating a 100 ml flask (as supplied by Vankel, US). The temperature of the water bath was set to 37.5° C. and the paddle speed was chosen such that the sample was kept in suspension (100 rpm).
About 3.4 grams of CDBAP (protein level of approx 60%) was dissolved/suspended in 100 ml Milli-Q water. During gastric simulation 5 M HCl was used to decrease the pH. At the end of gastric simulation and during the duodenal phase 5 M NaOH was used to raise the pH.
The CDBAP suspension was preheated to 37.5° C. and 5 ml of the suspension was removed to dissolve 0.31 g of pepsin (Fluka order no. 77161). At t=0 min the 5 ml with the now dissolved pepsin was added back to the suspension. Then the pH of the CDBAP suspension was adjusted slowly by hand using a separate pH meter according to the following scheme:
t=20 min pH decreased to 3.5 t=40 min pH to 3.0 t=50 min pH to 2.3 t=60 min pH to 1.8 t=65 min pH raised to 2.7 t=75 min pH to 3.7 t=80 min pH to 5.3 […]
Then the samples were transferred into a beaker and were placed in a microwave till boiling. […] The total N concentration of the powder as obtained was determined and converted to protein level using the Kjeldahl factor of casein (6.38). […] The levels of MAP and ITP surviving the proteolytic treatment according to the GIT procedure were determined as described in Example 7 and the data obtained are shown in Table 10.

ACE [4] = experiment: modified Matsui ACE inhibition assay (Hip-His-Leu, TNBS); format: biochemical
Description: To determine the ACE inhibition activity of MAP and ITP, the chemically synthesised tripeptides were assayed according to the method of Matsui et al. (Matsui, T. et al. (1992) Biosci. Biotech. Biochem. 56: 517-518) with some minor modifications.
Each one of the four samples contained 75 μl 3 mM hippuryl histidine leucine (Hip-His-Leu, Sigma Chemicals) dissolved in a 250 mM borate solution containing 200 mM NaCl, pH 8.3. ACE was obtained from Sigma Chemicals. The mixtures were incubated at 37° C. and stopped after 30 min by adding 125 μl 0.5 M HCl. Subsequently, 225 μl bicine/NaOH solution (1 M NaOH: 0.25 M bicine (4:6)) was added, followed by 25 μl 0.1 M TNBS (2,4,6-Trinitrobenzenesulfonic acid, Fluka, Switzerland; in 0.1 M Na2HPO4). After incubation for 20 min. at 37° C., 4 ml 4 mM Na2SO3 in 0.2 M NaH2PO4 was added and the light absorbance at 416 nm was measured with UV/Vis spectrophotometer (Shimadzu UV-1601 with a CPS controller, Netherlands).
The amount of ACE inhibition (ACEI) activity was calculated as a percentage of inhibition compared with the conversion rate of ACE in the absence of an inhibitor according to the following formula:
ACEI (%)=((Control 1−Control 2)−(Sample 1−Sample 2))/(Control 1−Control 2))*100
wherein • Control 1=Absorbance without ACE inhibitory component (=max. ACE activity) [AU]. • Control 2=Absorbance without ACE inhibitory component and without ACE (background) [AU]. • Sample 1=Absorbance in the presence of ACE and the ACE inhibitory component [AU]. • Sample 2=Absorbance in the presence of the ACE inhibitory component, but without ACE [AU].

ACE [5] = experiment: at-line ACE inhibition assay (HHL substrate, HPLC read-out); format: biochemical; conditions: at-line measurements used in the screening phase
Excerpt: The presence of novel ACE inhibiting peptides in CDBAP was investigated by using 2-dimensional-chromatographic-separation combined with an at-line ACE inhibition assay and mass spectrometry for identification. In the first analysis the peptide mixture was separated on an ODS3 liquid chromatography (LC) column and ACE inhibition profiles were generated from the various fractions obtained. In a second analysis the fractions from the first column showing a high ACE inhibition were further separated on a Biosuite LC column using a different gradient profile. The fractions collected from this second column were split into two parts: one part was used for the at-line ACE inhibition measurement while the other part was subjected to MS and MS-MS analysis to identify the peptides present. […]
The 96 well plate was then analysed on a flash-HPLC-column. […] Hippuric acid (H) and HHL were monitored at 280 nm. The peak heights of H and HHL were measured and the ACE inhibition (ACEI) of each fraction was calculated according to the equation:
[formula] • ACEIα Percentage inhibition of the analyte • Dcw Degree of Cleavage by ACE of HHL to H and HL in water • Dca Degree of Cleavage of HHL to H and HL for the analyte The Degree of Cleavage was calculated by expressing the peak height of H as a fraction of the sum of the peak heights of H and HHL.

[6] = as restated in the description, read-out: IC50 value in the Modified Matsui test

ACE (Homo sapiens, UniProt P12821), sequence (P12821 30-1306, species assumed): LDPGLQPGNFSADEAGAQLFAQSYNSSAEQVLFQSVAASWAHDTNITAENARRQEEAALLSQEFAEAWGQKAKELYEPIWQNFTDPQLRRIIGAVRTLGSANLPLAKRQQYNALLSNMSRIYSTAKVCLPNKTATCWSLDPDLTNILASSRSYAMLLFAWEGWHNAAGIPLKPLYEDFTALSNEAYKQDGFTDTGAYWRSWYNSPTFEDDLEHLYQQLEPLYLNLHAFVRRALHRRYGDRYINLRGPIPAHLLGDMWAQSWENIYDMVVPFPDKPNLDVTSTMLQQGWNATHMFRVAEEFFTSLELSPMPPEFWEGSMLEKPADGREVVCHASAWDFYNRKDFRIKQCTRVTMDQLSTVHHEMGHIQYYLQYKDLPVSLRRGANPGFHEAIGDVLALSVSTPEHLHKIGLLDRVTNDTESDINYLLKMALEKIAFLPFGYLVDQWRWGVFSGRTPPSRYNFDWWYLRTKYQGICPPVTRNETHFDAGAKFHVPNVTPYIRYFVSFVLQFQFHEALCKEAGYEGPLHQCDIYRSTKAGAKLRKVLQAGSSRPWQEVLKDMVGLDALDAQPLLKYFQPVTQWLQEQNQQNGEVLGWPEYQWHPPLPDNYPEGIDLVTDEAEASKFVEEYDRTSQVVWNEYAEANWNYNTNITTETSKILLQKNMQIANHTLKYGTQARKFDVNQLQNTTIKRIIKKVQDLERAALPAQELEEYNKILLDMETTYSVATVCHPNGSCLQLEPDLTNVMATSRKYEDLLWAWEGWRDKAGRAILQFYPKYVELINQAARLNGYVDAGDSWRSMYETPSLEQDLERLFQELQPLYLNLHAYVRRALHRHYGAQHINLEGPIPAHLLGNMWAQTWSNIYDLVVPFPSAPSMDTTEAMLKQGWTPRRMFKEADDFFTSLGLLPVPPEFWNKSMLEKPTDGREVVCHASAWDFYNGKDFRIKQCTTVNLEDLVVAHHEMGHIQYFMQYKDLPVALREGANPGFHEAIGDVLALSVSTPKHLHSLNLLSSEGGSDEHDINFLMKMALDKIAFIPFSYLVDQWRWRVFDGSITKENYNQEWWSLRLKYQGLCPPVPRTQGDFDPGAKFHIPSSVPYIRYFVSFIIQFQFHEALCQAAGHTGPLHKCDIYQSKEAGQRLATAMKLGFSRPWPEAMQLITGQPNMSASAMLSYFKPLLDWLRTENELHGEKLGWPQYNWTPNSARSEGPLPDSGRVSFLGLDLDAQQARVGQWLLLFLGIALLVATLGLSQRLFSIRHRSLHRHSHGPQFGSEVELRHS

Substance	IC50 (ACE [1])	ACE inhibiting activities reported (ACE [1])	antihypertensive effects [2]	Concentration of tripeptide in CDBAP before GIT procedure ([3]; CDBAP (Example 7), before passage)	Concentration of tripeptide in CDBAP after GIT procedure ([3]; CDBAP after GIT, pepsin then pancreatin, 125 min, 37.5° C.)	resistance against GIT digestion ([3]; simulated gastro-intestinal digestion)	IC50 (ACE [4]; [6])	IC50 (ACE [4]; chemically synthesized tripeptides, read-out: IC50 value, Modified Matsui assay)	IC50 (ACE [5])
Leu-Pro-Pro [LPP]	9.6 µM	Strong ACE inhibiting activities	–	–	–	–	–	–	–
Val-Pro-Pro [VPP]	–	Strong ACE inhibiting activities	confirmed	–	–	–	–	–	–
Ile-Thr-Pro (ITP)	–	–	–	903.7 μg g^−1 powder	889.1 μg g^−1 powder	high resistance; also recorded: resist gastrointestinal proteolytic degradation; also recorded: survive	10 µM	10 µM	50 µM
Ile-Pro-Pro (IPP)	5 µM	Strong ACE inhibiting activities	confirmed	–	–	–	2 µM	–	7.1 µM
